Structures can show the parent of a compound that is named as a salt.
What was measured:
[1] = target: T1, acetylcholinesterase (AChE) (Rattus norvegicus, UniProt P37136); experiment: In vitro inhibition of acetylcholinesterase activity in rat striatum; type: biochemical, Rat (male Wistar)
T1 construct: corpora striata dissected free, weighed and homogenized in 19 volumes; from tissue; host or cells: male Wistar rat corpora striata, whole homogenate
T1 sequence (P37136 32-614): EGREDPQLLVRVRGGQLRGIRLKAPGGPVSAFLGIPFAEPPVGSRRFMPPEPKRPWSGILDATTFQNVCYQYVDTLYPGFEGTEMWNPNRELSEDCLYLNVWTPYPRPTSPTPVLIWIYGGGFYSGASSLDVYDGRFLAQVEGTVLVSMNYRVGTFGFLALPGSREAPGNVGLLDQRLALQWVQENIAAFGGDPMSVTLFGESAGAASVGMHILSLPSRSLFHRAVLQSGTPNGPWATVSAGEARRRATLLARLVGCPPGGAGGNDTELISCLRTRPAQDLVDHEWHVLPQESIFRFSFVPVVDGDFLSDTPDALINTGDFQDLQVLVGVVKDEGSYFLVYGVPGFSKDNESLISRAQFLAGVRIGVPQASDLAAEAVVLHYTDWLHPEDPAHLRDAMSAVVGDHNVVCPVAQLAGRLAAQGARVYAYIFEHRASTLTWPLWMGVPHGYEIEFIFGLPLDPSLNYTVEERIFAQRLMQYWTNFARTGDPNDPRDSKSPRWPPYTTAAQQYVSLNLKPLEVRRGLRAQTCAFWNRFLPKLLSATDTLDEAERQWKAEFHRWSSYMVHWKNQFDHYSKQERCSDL
Description: Cholinesterase Inhibition Assay
Cholinesterases are found throughout the body, both in the brain and in serum. However, only brain acetylcholinesterase (AChE) distribution is correlated with central cholinergic innervation.
In Vitro Inhibition of Acetylcholinesterase Activity in Rat Striatum
The method described below was used in this invention for assaying cholinesterase activity.
1. 0.05M Phosphate buffer, pH 7.2
(c) add (a) to (b) until pH reaches 7.2
4. […] If active, IC50 values are determined from the inhibitory activity of subsequent concentrations.
Enzyme activity is measured with the Beckman DU-50 spectrophotometer. This method can be used for IC50 determinations and for measuring kinetic constants.
Reagents are added to the blank and sample cuvettes as follows:
Blank values are determined for each run to control for non-enzymatic hydrolysis of substrate and these values are automatically subtracted by the kindata program available on kinetics soft-pac module. This program also calculates the rate of absorbance change for each cuvette.
Substrate concentration is 10 mM diluted 1:2 in assay yielding final concentration of 5 mM. DTNB concentration is 0.5 mM yielding 0.25 mM final concentration. [formula] IC50 values are calculated from log-probit analysis

[2] = target: T2, Type A monoamine oxidase (MAO-A) (Rattus norvegicus, UniProt P21396); experiment: Inhibition of Type A monoamine oxidase activity in rat brain synaptosomes; type: biochemical, Rat (male Wistar); conditions: [3H]-5HT substrate 200 μM, 15 min preincubation, 30 min at 37° C., pH 7.4, read-out: Inhibitory Concentration - IC50, Type-A
T2 construct: served as the tissue source for mitochondrial MAO; from tissue; host or cells: male Wistar rat whole brain minus cerebellum, P2 pellet (18,000 g)
T2 sequence (P21396 1-526): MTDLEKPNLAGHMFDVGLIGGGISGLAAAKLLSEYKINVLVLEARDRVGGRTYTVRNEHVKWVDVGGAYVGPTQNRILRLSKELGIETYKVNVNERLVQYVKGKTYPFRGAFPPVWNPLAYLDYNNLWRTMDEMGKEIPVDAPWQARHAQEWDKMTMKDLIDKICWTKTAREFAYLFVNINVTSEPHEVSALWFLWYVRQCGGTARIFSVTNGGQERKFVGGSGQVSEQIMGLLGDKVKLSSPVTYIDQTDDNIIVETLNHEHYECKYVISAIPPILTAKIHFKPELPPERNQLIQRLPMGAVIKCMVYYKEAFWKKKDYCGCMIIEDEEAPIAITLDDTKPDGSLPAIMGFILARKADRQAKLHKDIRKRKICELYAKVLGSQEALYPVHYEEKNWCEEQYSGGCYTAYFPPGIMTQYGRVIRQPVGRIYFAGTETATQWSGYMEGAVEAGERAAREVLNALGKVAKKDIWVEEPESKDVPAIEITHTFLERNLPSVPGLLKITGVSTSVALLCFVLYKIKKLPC
Description: (§1) Male Wistar rats weighing 150-250 grams were sacrificed and the brains rapidly removed.

[3] = target: T3, Type B monoamine oxidase (MAO-B) (Rattus norvegicus, UniProt P19643); experiment: Inhibition of Type B monoamine oxidase activity in rat brain synaptosomes; type: biochemical, Rat (male Wistar); conditions: [14C]-PEA substrate 200 μM, 15 min preincubation, 30 min at 37° C., pH 7.4, read-out: Inhibitory Concentration - IC50, Type-B
T3 construct: served as the tissue source for mitochondrial MAO; from tissue; host or cells: male Wistar rat whole brain minus cerebellum, P2 pellet (18,000 g)
T3 sequence (P19643 1-520): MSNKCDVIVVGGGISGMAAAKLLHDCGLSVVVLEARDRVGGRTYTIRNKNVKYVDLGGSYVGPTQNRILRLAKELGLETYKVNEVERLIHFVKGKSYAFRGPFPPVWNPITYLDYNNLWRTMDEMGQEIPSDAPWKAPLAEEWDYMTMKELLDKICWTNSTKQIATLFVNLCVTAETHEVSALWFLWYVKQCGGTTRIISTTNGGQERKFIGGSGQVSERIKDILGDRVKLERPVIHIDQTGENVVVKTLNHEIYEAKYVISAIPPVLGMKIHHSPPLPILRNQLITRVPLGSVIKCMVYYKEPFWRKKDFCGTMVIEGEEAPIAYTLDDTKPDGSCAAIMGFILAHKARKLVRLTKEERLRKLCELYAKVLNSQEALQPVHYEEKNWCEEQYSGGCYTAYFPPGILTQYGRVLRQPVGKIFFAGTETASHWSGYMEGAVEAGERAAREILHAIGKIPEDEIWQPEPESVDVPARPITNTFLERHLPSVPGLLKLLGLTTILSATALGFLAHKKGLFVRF
Description: as §1

[4] = tested on: monoamine oxidase type A and type B; conditions: in words; reference (2), Fowler and Ross 1984; cited from earlier work

Compound	IC50 [2] [µM]	IC50 [3] [µM]	selectivity of inhibition of type A / type B monoamine oxidase [4]	other results
CNC(=O)Oc1ccc2c(c1)c1c(n2C)CC(CN(C)C)C1 (centres unmarked) [1,2,3,4-Tetrahydro-2-[(dimethylamino)methyl]-4-methylcyclopent[b]indol-7-yl-methylcarbamate hydrochloride]	–	–	–	IC50 [1]: 9.6 µM
CCNCC1Cc2c(n(C)c3ccc(OC)cc23)C1 (centres unmarked) [1,2,3,4-Tetrahydro-4-methyl-7-methoxy-N-ethylcyclopent[b]indole-2-methanamine maleate]	182	713	–	–
COc1ccc2c(c1)c1c(n2C)CC(CN)C1 (centres unmarked) [1,2,3,4-Tetrahydro-7-methoxy-4-methylcyclopent[b]indole-2-methanamine hydrochloride]	59	287	–	–
C#CCN(C)CCCOc1ccc(Cl)cc1Cl [Clorgyline]	–	–	selective inhibitor of the type A enzyme	–
CC(C)NNC(=O)c1ccncc1 [iproniazid]	–	–	nonselective inhibitors	–
C#CCN(C)Cc1ccccc1 [pargyline]	–	–	selective inhibitors of the type B enzyme	–

Source: US5350762A, “Tetrahydrocyclopent[B]indole methanamines and related compounds” (priority 1993, dated 1994)
